Measured values as given in PubChem BioAssay AID248 (DTP/NCI, 2004).
“And” between values parts separate entries of the source, which are not always exact repeats. Equal entries are not always repeated. Toxic doses and inconclusive results are not listed. Rule as the data show it: active = T/C of 150% or more; inactive = T/C below 125%.

Test system: L1210 leukemia ip in BDF1 mice, survival T/C
Test: NCI In Vivo Anticancer Drug Screen. Data for tumor model L1210 Leukemia (intraperitoneal) in B6D2F1 (BDF1) mice
Details: endpoint: mean survival time, higher = longer survival
In short: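 Tumor was transplanted into mice, which were then dosed with test compound or vehicle alone. Survival was recorded for each group, and the treated figure was expressed relative to the control figure.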

[1] = dose: 5.0 mg/kg/injection, schedule: Q01DX001 (ip), vehicle: saline
[2] = dose: 10.0 mg/kg/injection, schedule: Q01DX001 (ip), vehicle: saline
[3] = dose: 20.0 mg/kg/injection, schedule: Q01DX001 (ip), vehicle: saline
[4] = dose: 40.0 mg/kg/injection, schedule: Q01DX001 (ip), vehicle: saline
[5] = dose: 100.0 mg/kg/injection, schedule: Q01DX009 (ip), vehicle: Klucel (hydroxypropylcellulose) (HPC)
[6] = dose: 200.0 mg/kg/injection, schedule: Q01DX009 (ip), vehicle: Klucel (hydroxypropylcellulose) (HPC)
[7] = dose: 400.0 mg/kg/injection, schedule: Q01DX009 (ip), vehicle: Klucel (hydroxypropylcellulose) (HPC)
[8] = dose: 50.0 mg/kg/injection, schedule: Q01DX001 (ip), vehicle: saline
[9] = dose: 50.0 mg/kg/injection, schedule: Q01DX009 (ip), vehicle: saline
[10] = dose: 100.0 mg/kg/injection, schedule: Q01DX001 (ip), vehicle: saline
[11] = dose: 100.0 mg/kg/injection, schedule: Q04DX003 (ip), vehicle: saline
[12] = dose: 50.0 mg/kg/injection, schedule: Q01DX009 (ip), vehicle: saline with Tween-80
[13] = dose: 100.0 mg/kg/injection, schedule: Q01DX009 (ip), vehicle: saline with Tween-80
[14] = dose: 200.0 mg/kg/injection, schedule: Q01DX009 (ip), vehicle: saline with Tween-80
[15] = dose: 200.0 mg/kg/injection, schedule: Q01DX001 (ip), vehicle: saline
[16] = dose: 400.0 mg/kg/injection, schedule: Q01DX001 (ip), vehicle: saline
[17] = dose: 400.0 mg/kg/injection, schedule: Q01DX009 (ip), vehicle: saline with Tween-80

Measured: T/C

CC1(C)N=C(N)N=C(N)N1c1cccc(OCc2cccc(NC(=O)CBr)c2)c1
inactive: [1] 106 % of control | [2] 103 % of control | [3] 103 % of control | [4] 97 % of control

O=C(c1c(F)c(F)c(F)c(F)c1F)N1CC1
inactive: dose: 25.0 mg/kg/injection, schedule: Q01DX009 (ip), vehicle: water 96 % of control | dose: 50.0 mg/kg/injection, schedule: Q01DX009 (ip), vehicle: water 93 % of control

CCCCCCC(/C=N/NC(=O)CCCCCCCCC(=O)N/N=C/C(=C/c1ccccc1)CCCCCC)=C\c1ccccc1
inactive: [5] 93 % of control | [6] 98 % of control | [7] 91 % of control

C#CC[N+](CC)(CC)CC
inactive: dose: 25.0 mg/kg/injection, schedule: Q01DX001 (ip), vehicle: saline 100 % of control | dose: 25.0 mg/kg/injection, schedule: Q01DX009 (ip), vehicle: saline 106 % of control and 89 % of control | dose: 25.0 mg/kg/injection, schedule: Q04DX002 (ip), vehicle: saline 95 % of control and 97 % of control | dose: 25.0 mg/kg/injection, schedule: Q04DX003 (ip), vehicle: saline 99 % of control | [8] 100 % of control | [9] 98 % of control and 106 % of control | dose: 50.0 mg/kg/injection, schedule: Q04DX002 (ip), vehicle: saline 107 % of control and 122 % of control | dose: 50.0 mg/kg/injection, schedule: Q04DX003 (ip), vehicle: saline 102 % of control | [10] 105 % of control and 110 % of control | [11] 103 % of control

O=C(Nc1ccc(Cl)cc1Cl)OCCOc1ccc([N+](=O)[O-])cc1
inactive: [12] 102 % of control | [13] 98 % of control | [14] 93 % of control

COc1ccc(OC)c(NC(=S)N/N=C(/C)c2cc(Cl)c(C)cc2O)c1
inactive: dose: 12.5 mg/kg/injection, schedule: Q04DX002 (ip), vehicle: Klucel (hydroxypropylcellulose) (HPC) 112 % of control | dose: 25.0 mg/kg/injection, schedule: Q04DX002 (ip), vehicle: Klucel (hydroxypropylcellulose) (HPC) 97 % of control | dose: 50.0 mg/kg/injection, schedule: Q04DX002 (ip), vehicle: Klucel (hydroxypropylcellulose) (HPC) 97 % of control

NCC1COc2ccccc2N1 (stereo not given)
inactive: dose: 100.0 mg/kg/injection, schedule: Q04DX002 (ip), vehicle: other 108 % of control | dose: 200.0 mg/kg/injection, schedule: Q04DX002 (ip), vehicle: other 101 % of control | dose: 400.0 mg/kg/injection, schedule: Q04DX002 (ip), vehicle: other 111 % of control

CN(C)C(=S)SCCC(N)C(=O)O (stereo not given)
inactive: [12] 90 % of control | [13] 101 % of control | [14] 96 % of control

CCOC(=O)/C(=C/c1cccc2ccccc12)P(=O)(OCC)OCC
inactive: [8] 97 % of control | [10] 97 % of control | [15] 103 % of control | [16] 101 % of control

CC(=O)NC1C(=O)NS(=O)(=O)C1c1ccccc1 (stereo not given)
inactive: [9] 96 % of control and 97 % of control | [10] 104 % of control and 92 % of control | dose: 100.0 mg/kg/injection, schedule: Q01DX009 (ip), vehicle: saline 97 % of control and 94 % of control | [15] 92 % of control | dose: 200.0 mg/kg/injection, schedule: Q01DX009 (ip), vehicle: saline 94 % of control and 91 % of control | [16] 92 % of control

CCOC(=O)n1cccc(C)c1=N
inactive: dose: 100.0 mg/kg/injection, schedule: Q01DX001 (ip), vehicle: carboxymethylcellulose (CMC) 102 % of control | dose: 200.0 mg/kg/injection, schedule: Q01DX001 (ip), vehicle: carboxymethylcellulose (CMC) 100 % of control | dose: 400.0 mg/kg/injection, schedule: Q01DX001 (ip), vehicle: carboxymethylcellulose (CMC) 102 % of control

NC(=O)NOC(=O)c1ccccc1
inactive: dose: 50.0 mg/kg/injection, schedule: Q01DX Z (ip), vehicle: other 103 % of control | dose: 100.0 mg/kg/injection, schedule: Q01DX Z (ip), vehicle: other 103 % of control | dose: 450.0 mg/kg/injection, schedule: Q01DX Z (ip), vehicle: other 111 % of control | dose: 600.0 mg/kg/injection, schedule: Q01DX Z (ip), vehicle: other 112 % of control

O=C(Nc1ccc2ccccc2c1)Nc1ccccc1F
inactive: [5] 93 % of control | [6] 104 % of control | [7] 93 % of control

Cc1c2oc3c(C)ccc(C(=O)NCCN4CCN(c5ccccc5)CC4)c3nc-2c(C(=O)NCCN2CCN(c3ccccc3)CC2)c(N)c1=O
inactive: dose: 100.0 mg/kg/injection, schedule: Q04DX002 (ip), vehicle: saline with Tween-80 92 % of control | dose: 200.0 mg/kg/injection, schedule: Q04DX002 (ip), vehicle: saline with Tween-80 95 % of control | dose: 400.0 mg/kg/injection, schedule: Q04DX002 (ip), vehicle: saline with Tween-80 95 % of control

Cc1cncc(CC(O)(C(F)(F)F)C(F)(F)F)n1
inactive: [10] 102 % of control | [13] 97 % of control | [15] 96 % of control | [14] 103 % of control | [16] 104 % of control | [17] 101 % of control

CNc1cccc([N+](=O)[O-])c1
inactive: [10] 95 % of control | [15] 103 % of control

COc1cc2c(c(OC)c1OC)CCNC2
inactive: [1] 100 % of control | [2] 100 % of control | [3] 100 % of control | [4] 101 % of control

CCCCCCCCCCCCCCCCOc1ccc(S(=O)(=O)Nc2cc(C(=O)OC)cc(C(=O)OC)c2)cc1N
inactive: dose: 100.0 mg/kg/injection, schedule: Q04DX003 (ip), vehicle: saline with Tween-80 97 % of control | dose: 200.0 mg/kg/injection, schedule: Q04DX003 (ip), vehicle: saline with Tween-80 90 % of control | dose: 400.0 mg/kg/injection, schedule: Q04DX003 (ip), vehicle: saline with Tween-80 90 % of control

Cc1ccc(S(=O)(=O)NCN2C(=O)c3ccccc3C2=O)cc1
inactive: dose: 100.0 mg/kg/injection, schedule: Q01DX001 (ip), vehicle: acetone 98 % of control | [13] 93 % of control | [11] 94 % of control | dose: 200.0 mg/kg/injection, schedule: Q01DX001 (ip), vehicle: acetone 93 % of control | [14] 98 % of control | dose: 200.0 mg/kg/injection, schedule: Q04DX003 (ip), vehicle: saline 97 % of control | dose: 400.0 mg/kg/injection, schedule: Q01DX001 (ip), vehicle: acetone 95 % of control | [17] 97 % of control | dose: 400.0 mg/kg/injection, schedule: Q04DX003 (ip), vehicle: saline 99 % of control

CCC[CH2][Sn]([Br])([CH2]CCC)[CH2]CCC
inactive: dose: 3.13 mg/kg/injection, schedule: Q01DX009 (ip), vehicle: carboxymethylcellulose (CMC) 93 % of control and 103 % of control | dose: 6.25 mg/kg/injection, schedule: Q01DX009 (ip), vehicle: carboxymethylcellulose (CMC) 103 % of control (2×) and 104 % of control | dose: 6.25 mg/kg/injection, schedule: Q04DX003 (ip), vehicle: carboxymethylcellulose (CMC) 96 % of control | dose: 12.5 mg/kg/injection, schedule: Q01DX009 (ip), vehicle: carboxymethylcellulose (CMC) 93 % of control and 101 % of control and 103 % of control | dose: 12.5 mg/kg/injection, schedule: Q04DX002 (ip), vehicle: carboxymethylcellulose (CMC) 92 % of control and 103 % of control | dose: 12.5 mg/kg/injection, schedule: Q04DX003 (ip), vehicle: carboxymethylcellulose (CMC) 107 % of control | dose: 25.0 mg/kg/injection, schedule: Q04DX002 (ip), vehicle: carboxymethylcellulose (CMC) 93 % of control and 98 % of control
